US20040132648A1, “Remedies and/or preventives for conformational diseases” (priority 2001, published 2004)
Square brackets hold non-standard residues; d marks the D form. Nle = CCCC[C@H](N)C(=O)O

tested on: PC12 cells; experiment: Cell death by β-amyloid monitored by lactate dehydrogenase release; format: cell-based, rat; conditions: 48 hours; 0.2 μM insulin-containing serum-free DMEM; FIG. 3

Molecule | cell death by β-amyloid vs control group
β-amyloid 1-42 | significant cell death

same assay, conditions: 48 hours; 0.25% horse serum and 0.25% newborn calf serum-containing DMEM; FIG. 3

Molecule | cell death by β-amyloid vs control group
β-amyloid 1-42 | significant cell death

same assay, conditions: 48 hours; 5% horse serum and 5% newborn calf serum-containing DMEM; FIG. 3

Molecule | cell death by β-amyloid vs control group
β-amyloid 1-42 | no cell death

same assay, conditions: β-amyloid 10^−5M; PACAP27 10^−9M; over time; 0.2 μM insulin-containing serum-free DMEM; FIG. 4

Molecule | neuroprotective action against cell death by β-amyloid (lactate dehydrogenase released into media)
PACAP27 (H-HSDGIFTDSYSRYRKQMAVKKYLAAVL-NH2; ends and bridges not checked) [Peptide 2] | cell death was very strongly suppressed

tested on: PC12 cells; experiment: Neuroprotective action against β-amyloid, viable cell count / survival rate by WST-8 method; format: cell-based, rat; parameters: key to Neuroprotective action: +, P < 0.05 when compared with the no neuropeptide-added group; conditions: not given
Description: An experiment was performed similarly to Example 5, and then the neuroprotective action against cell death by β-amyloid of the following PACAP-related neuropeptides (peptides 1, 2, 4, 5, 7, 8, 15, 16, 17, 19, 21, 26, 27, 28, 29, 30, 31, 32, 33, 34, 35, 36, 37, 38 and 39) and VIP-related neuropeptides (peptides 3, 9, 10, 11, 12, 13, 14, 18, 20, 22, 23, 24 and 25) was confirmed. Specifically, amyloid (50 μM) and each of the various PACAP-related neuropeptides and VIP-related neuropeptides were added to the cultured PC12 cells. The number of […] calculated by the WST-8 method, so that comparison and examination was performed for the neuroprotective action of these various peptides against amyloid. If the neuropeptides had neuroprotective action, a clear difference in viable cell count can be observed between cases in which neuropeptides were added and cases in which neuropeptides were not added. In PC12 cells added with each of the various neuropeptides, a case wherein a higher cell survival rate (P<0.05) was observed compared with groups in which neuropeptides had not been added, was determined as having neuroprotective action. The results are shown in Table 1 and Table 2. β-amyloid was added to PC12 cells that had been cultured similarly to Example 5. At this time, neuropeptides PACAP27, VIP and humanin, and a cell-permeable cAMP derivative were allowed to respectively co-exist, so that the effect of these neuropeptides against cell death by β-amyloid was confirmed. Cell death was examined by evaluating cell count using the WST-8 method, and then by calculating cell survival rate. […] In the presence of β-amyloid, approximately 70% of the cells died. […] The neuroprotective action of humanin, a recently found human-derived neuroprotective substance (Proc Natl Acad Sci USA (2001) 98 (11) 6336-6341), was also examined. […] At this time, neuropeptides at various concentrations were allowed to co-exist, so that the relationship between the neuroprotective action and the concentration was investigated. Cells were calculated by the WST-8 method, and then the extent to which cell death by β-amyloid could be attenuated was expressed numerically.

Molecule | Neuroprotective action
PACAP38 [Peptide 1] | +

same assay, conditions: PACAP-related neuropeptide 10^−9 M; amyloid (50 μM); cell survival rate vs no peptide

Molecule | Neuroprotective action
PACAP long form (PACAP35) (H-HSDGIFTDSYSRYRKQMAVKKYLAAVLGKRYKQRV-NH2; ends and bridges not checked) [Peptide 36] | +
PACAP long form (PACAP37) (H-HSDGIFTDSYSRYRKQMAVKKYLAAVLGKRYKQRVKN-NH2; ends and bridges not checked) [Peptide 38] | +
PACAP27 highly basic derivative B (H-HSDGIFTDSYSRYRRQLAVRRYLAAVLGKR-NH2; ends and bridges not checked) [Peptide 16] | +
PACAP27 highly basic derivative C (H-HSDGIFTDSYSRYRRQLAVRRYLAAVLGRR-NH2; ends and bridges not checked) [Peptide 17] | +
PACAP long form (PACAP34) (H-HSDGIFTDSYSRYRKQMAVKKYLAAVLGKRYKQR-NH2; ends and bridges not checked) [Peptide 35] | +
[A^4, V^5, N^9]-PACAP27 [Peptide 8] | +
PACAP long form (PACAP32) (H-HSDGIFTDSYSRYRKQMAVKKYLAAVLGKRYK-NH2; ends and bridges not checked) [Peptide 33] | +
PACAP-like-peptide (stargazer-PACAP) (H-HSDGIFTDSYSRYRKQMAVQKYLAAVLGRRYRQRVRNK-NH2; ends and bridges not checked) [Peptide 5] | +
PACAP short form (H-HSDGIFTDSYSRYRKQMAVKKYL-NH2; ends and bridges not checked) [Peptide 19] | +
PACAP short form (PACAP25) (H-HSDGIFTDSYSRYRKQMAVKKYLAA-NH2; ends and bridges not checked) [Peptide 27] | +
PACAP long form (PACAP36) (H-HSDGIFTDSYSRYRKQMAVKKYLAAVLGKRYKQRVK-NH2; ends and bridges not checked) [Peptide 37] | +
[A^4, V^5]-PACAP27 (H-HSDAVFTDSYSRYRKQMAVKKYLAAVL-NH2; ends and bridges not checked) [Peptide 7] | +
PACAP-like-peptide (stingray-PACAP) (H-HSDGIFTDSYSRYRKQMAVKKYLAAVLGKRYKPKRRNSGRRVFY-NH2; ends and bridges not checked) [Peptide 21] | +
PACAP long form (PACAP28) (H-HSDGIFTDSYSRYRKQMAVKKYLAAVLG-NH2; ends and bridges not checked) [Peptide 29] | +
PACAP short form (PACAP26) (H-HSDGIFTDSYSRYRKQMAVKKYLAAV-NH2; ends and bridges not checked) [Peptide 28] | +
PACAP long form (PACAP33) (H-HSDGIFTDSYSRYRKQMAVKKYLAAVLGKRYKQ-NH2; ends and bridges not checked) [Peptide 34] | +
PACAP long form (PACAP30) (H-HSDGIFTDSYSRYRKQMAVKKYLAAVLGKR-NH2; ends and bridges not checked) [Peptide 31] | +
PACAP27 highly basic derivative A (H-HSDGIFTDSYSRYRRQLAVRRYLAAVLGK-NH2; ends and bridges not checked) [Peptide 15] | +
Arg-PACAP38 (H-HSDGIFTDSYSRYRRQLAVRRYLAAVLGRRYRQRVRNR-NH2; ends and bridges not checked) [Peptide 4] | +
PACAP short form (PACAP24) (H-HSDGIFTDSYSRYRKQMAVKKYLA-NH2; ends and bridges not checked) [Peptide 26] | +
PACAP long form (PACAP29) (H-HSDGIFTDSYSRYRKQMAVKKYLAAVLGK-NH2; ends and bridges not checked) [Peptide 30] | +
PACAP27 (H-HSDGIFTDSYSRYRKQMAVKKYLAAVL-NH2; ends and bridges not checked) [Peptide 2] | +
Arg-PACAP27 (H-HSDGIFTDSYSRYRRQLAVRRYLAAVL-NH2; ends and bridges not checked) [Peptide 6] | +
PACAP long form (PACAP31) (H-HSDGIFTDSYSRYRKQMAVKKYLAAVLGKRY-NH2; ends and bridges not checked) [Peptide 32] | +

same assay, conditions: VIP-related neuropeptide 10^−7 M; amyloid (50 μM); cell survival rate vs no peptide

Molecule | Neuroprotective action
[G^4, I^5]-VIP (H-HSDGIFTDNYTRLRKQMAVKKYLNSILN-NH2; ends and bridges not checked) [Peptide 9] | +
[G^4, I^5, S^9]-VIP (H-HSDGIFTDSYTRLRKQMAVKKYLNSILN-NH2; ends and bridges not checked) [Peptide 10] | +
VIP highly basic derivative A (HSDAVFTDNYTRLRRQLAVRRYLNSILNGK) [Peptide 11] | +
VIP short form (HSDAVFTDNYTRLRKQMAVKKYL) [Peptide 20] | +
VIP short form (VIP25) (HSDAVFTDNYTRLRKQMAVKKYLNS) [Peptide 23] | +
VIP short form (VIP27) (HSDAVFTDNYTRLRKQMAVKKYLNSIL) [Peptide 25] | +
VIP highly basic derivative B (HSDAVFTDNYTRLRRQLAVRRYLNSILNGKR) [Peptide 12] | +
VIP short form (VIP26) (HSDAVFTDNYTRLRKQMAVKKYLNSI) [Peptide 24] | +
VIP short form (VIP24) (HSDAVFTDNYTRLRKQMAVKKYLN) [Peptide 22] | +
VIP/PACAP highly basic chimera peptide (H-HSDAVFTDNYTRLRRQ[Nle]AVRRYLNSILNGRRYRQRVRNR-NH2; ends and bridges not checked) [Peptide 18] | +
VIP highly basic derivative C (HSDAVFTDNYTRLRRQLAVRRYLNSILNGRR) [Peptide 13] | +

same assay, conditions: co-existing with β-amyloid; PACAP27 10^−9 M; FIG. 5

Molecule | neuroprotective action against cell death by β-amyloid (cell survival rate)
CCCC(=O)Nc1ncnc2c1ncn2[C@@H]1O[C@@H]2COP(=O)(O)O[C@H]2[C@H]1OC(=O)CCC [dibutyryl-cAMP, reference compound] | cell death was very strongly suppressed
humanin (MAPRGFSCLLLLTSEIDLPVKRRA; Humanin; UniProt Q8IVG9 1-24, looked up) [a recently found human-derived neuroprotective substance, reference compound] | showed neuroprotective action, although the effect was also weaker than that of PACAP27
PACAP27 (H-HSDGIFTDSYSRYRKQMAVKKYLAAVL-NH2; ends and bridges not checked) [Peptide 2] | distinctly strong neuroprotective action

same assay, conditions: β-amyloid alone; WST-8; FIG. 5

Molecule | cells died in the presence of β-amyloid
β-amyloid 1-42 | approximately 70%

tested on: caspase-3; experiment: Caspase-3 activating action of β-amyloid and its suppression (Ac-DEVD-AMC substrate); format: cell-based, rat; conditions: 10^−5 M β-amyloid; cAMP derivative 10^−4 M; FIG. 7
Description: PC12 cells that had been cultured almost similarly to Example 4 were cultured in a 24-well plate (2×10^5 cells/well). 10^−5 M β-amyloid was added to the plate. At this time, cAMP derivative (10^−4 M) and neuropeptide PACAP (10^−9 M) were added respectively, and then the action of activating caspase-3, an apoptosis-related enzyme, was examined. The caspase-3 activating action was examined using Ac-DEVD-AMC, a caspase-3 specific substrate. […] Further, by the addition of neuropeptide PACAP, an incomplete, approximately 50% suppressive effect was shown. […] Taking into consideration that this suppressive action is not complete, other action mechanisms may also be involved.

Molecule | effect on caspase-3 activation by β-amyloid
CCCC(=O)Nc1ncnc2c1ncn2[C@@H]1O[C@@H]2COP(=O)(O)O[C@H]2[C@H]1OC(=O)CCC [dibutyryl-cAMP, reference compound] | significantly attenuated

same assay, conditions: addition of 10^−5 M β-amyloid; FIG. 7

Molecule | activity of caspase-3
β-amyloid 1-42 | improved
